# Target: T1, Rhesus PDE2A3 (Macaca mulatta, UniProt B3VTJ2)
# T1 construct: made in house; host or cells: AD293 cells, transient transfection, pcDNA3.3-TOPO; lysate supernatant used as enzyme
# T1 sequence (B3VTJ2 1-941): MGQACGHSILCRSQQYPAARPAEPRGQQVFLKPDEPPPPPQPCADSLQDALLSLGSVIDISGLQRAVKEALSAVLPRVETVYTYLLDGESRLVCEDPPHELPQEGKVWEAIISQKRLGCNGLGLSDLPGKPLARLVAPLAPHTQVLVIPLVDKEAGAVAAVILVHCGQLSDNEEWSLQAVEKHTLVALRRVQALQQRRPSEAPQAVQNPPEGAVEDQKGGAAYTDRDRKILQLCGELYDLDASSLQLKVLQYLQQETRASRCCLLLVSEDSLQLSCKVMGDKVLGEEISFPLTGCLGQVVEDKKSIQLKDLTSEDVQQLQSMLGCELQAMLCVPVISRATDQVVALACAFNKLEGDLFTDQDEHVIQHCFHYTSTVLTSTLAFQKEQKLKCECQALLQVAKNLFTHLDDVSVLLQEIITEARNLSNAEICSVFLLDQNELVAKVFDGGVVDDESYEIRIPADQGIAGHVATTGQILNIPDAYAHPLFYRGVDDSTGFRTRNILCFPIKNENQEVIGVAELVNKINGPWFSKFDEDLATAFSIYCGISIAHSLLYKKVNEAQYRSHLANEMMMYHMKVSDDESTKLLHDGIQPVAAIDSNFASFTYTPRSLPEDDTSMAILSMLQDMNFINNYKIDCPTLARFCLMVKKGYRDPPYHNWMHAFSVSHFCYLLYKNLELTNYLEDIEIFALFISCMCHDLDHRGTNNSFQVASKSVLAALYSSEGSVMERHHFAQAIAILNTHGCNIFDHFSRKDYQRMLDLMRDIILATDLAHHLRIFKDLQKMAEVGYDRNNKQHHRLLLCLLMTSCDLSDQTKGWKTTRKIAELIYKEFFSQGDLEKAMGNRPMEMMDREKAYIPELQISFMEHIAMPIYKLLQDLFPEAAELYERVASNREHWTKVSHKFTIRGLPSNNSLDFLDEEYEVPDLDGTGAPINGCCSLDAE
# Assay: PDE2 fluorescence polarization (IMAP FP) inhibition assay, rhesus enzyme
# Assay type: biochemical, rhesus macaque
# Details: Lab A; read-out: Rhesus PDE2 Ki (nM) Lab A
# Outline: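 Lysate of AD293 cells transiently expressing rhesus PDE2A3, diluted for ~20% substrate conversion, with 50 nM FAM-cAMP and 1 uM cGMP activator in pH 7.2 Tris/MgCl2 buffer, 60 min at room temperature.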
row,Ki,Compound
1,43.9 nM,"COc1cc(C(F)(F)F)ccc1[C@@H](C)n1cc(-c2cc(=O)[nH]c(C)n2)cn1 (single isomer, unassigned) [Example 2]"
2,13.1 nM,"Cc1nc(-c2cnn(C(C)c3ccc(C(F)(F)F)cc3C)c2)cc(=O)[nH]1 (single isomer, unassigned) [Example 57, (S)- or (R)-2-methyl-6-(1-(1-(2-methyl-4-(trifluoromethyl)phenyl)ethyl)-1H-pyrazol-4-yl)pyrimidin-4(3H)-one]"
3,3.6 nM,"COc1ccc(Cc2nc(-c3cnn(C(C)c4ccc(C(F)(F)F)cc4)c3)cc(=O)[nH]2)cc1OC (single isomer, unassigned) [Example 60, (R)- or (S)-2-(3,4-dimethoxybenzyl)-6-(1-(1-4-(trifluoromethyl)phenyl)ethyl)-1H-pyrazol-4-yl)pyrimidin-4(3H)-one]"

# Same assay, conditions: Lab B; read-out: Rhesus PDE2 Ki (nM) Lab B
row,Compound,Ki
1,"COc1cc(C(F)(F)F)ccc1[C@@H](C)n1cc(-c2cc(=O)[nH]c(C)n2)cn1 (single isomer, unassigned) [Example 2]",35.3 nM
2,"Cc1nc(-n2cc([C@H](C)c3ccc(C(F)(F)F)cc3)cn2)cc(=O)[nH]1 (single isomer, unassigned) [Example 3]",93 nM
3,"Cc1nc(-n2cc([C@H](C)c3ccc(C(F)(F)F)cc3)cn2)cc(=O)[nH]1 (single isomer, unassigned) [Example 4]",29.5 nM
4,"Cc1nc(-n2ccc([C@H](C)c3ccc(C(F)(F)F)cc3)n2)cc(=O)[nH]1 (single isomer, unassigned) [Example 5]",285 nM
5,"Cc1nc(-n2ccc([C@H](C)c3ccc(C(F)(F)F)cc3)n2)cc(=O)[nH]1 (single isomer, unassigned) [Example 6]",466 nM
6,"Cc1nc(-n2cc([C@](C)(O)c3ccc(C(F)(F)F)cc3F)cn2)cc(=O)[nH]1 (single isomer, unassigned) [Example 15]",15.6 nM
7,"Cc1nc(-n2cc([C@](C)(O)c3ccc(C(F)(F)F)cc3F)cn2)cc(=O)[nH]1 (single isomer, unassigned) [Example 16]",75.8 nM
8,"Cc1nc(-n2cc([C@H](CO)c3ccc(C(F)(F)F)cc3F)cn2)cc(=O)[nH]1 (single isomer, unassigned) [Example 19]",105 nM

# Next, values leading:
row,Ki,Compound
1,18.2 nM,"Cc1nc(-n2cc([C@H](CO)c3ccc(C(F)(F)F)cc3F)cn2)cc(=O)[nH]1 (single isomer, unassigned) [Example 20]"
2,213 nM,"Cc1nc(-n2cc([C@]3(c4ccc(C(F)(F)F)cc4)CCCO3)cn2)cc(=O)[nH]1 (single isomer, unassigned) [Example 21]"
3,41.9 nM,"Cc1nc(-n2cc([C@]3(c4ccc(C(F)(F)F)cc4)CCCO3)cn2)cc(=O)[nH]1 (single isomer, unassigned) [Example 22]"
4,29.3 nM,"Cc1nc(-c2cc([C@H](C)c3ccc(C(F)(F)F)cc3)[nH]n2)cc(=O)[nH]1 (single isomer, unassigned) [Example 23]"
5,154 nM,"Cc1nc(-c2cc([C@H](C)c3ccc(C(F)(F)F)cc3)[nH]n2)cc(=O)[nH]1 (single isomer, unassigned) [Example 24]"
6,98 nM,"Cc1nc(-n2cc(C3(C)OCc4cc(C(F)(F)F)ccc43)cn2)cc(=O)[nH]1 (single isomer, unassigned) [Example 27]"
7,94.5 nM,"Cc1nc(-n2cc(C3(C)OCc4cc(C(F)(F)F)ccc43)cn2)cc(=O)[nH]1 (single isomer, unassigned) [Example 28]"
8,7.2 nM,"Cc1nc(-n2cc(C(C)c3ccc(C(F)(F)F)cc3F)cn2)cc(=O)[nH]1 (single isomer, unassigned) [Example 52, (R)- or (S)-6-(4-(1-(2-fluoro-4-(trifluoromethyl)phenyl)ethyl)-1H-pyrazol-1-yl)-2-methylpyrimidin-4(3H)-one]"
9,64.5 nM,"Cc1nc(-n2cc(C(C)c3ccc(C(F)(F)F)cc3F)cn2)cc(=O)[nH]1 (single isomer, unassigned) [Example 53, (S)- or (R)-6-(4-(1-(2-fluoro-4-(trifluoromethyl)phenyl)ethyl)-1H-pyrazol-1-yl)-2-methylpyrimidin-4(3H)-one]"
10,13 nM,"Cc1nc(-c2cnn(C(C)c3ccc(C(F)(F)F)cc3C)c2)cc(=O)[nH]1 (single isomer, unassigned) [Example 57, (S)- or (R)-2-methyl-6-(1-(1-(2-methyl-4-(trifluoromethyl)phenyl)ethyl)-1H-pyrazol-4-yl)pyrimidin-4(3H)-one]"
11,2.4 nM,"COc1ccc(Cc2nc(-c3cnn(C(C)c4ccc(C(F)(F)F)cc4)c3)cc(=O)[nH]2)cc1OC (single isomer, unassigned) [Example 60, (R)- or (S)-2-(3,4-dimethoxybenzyl)-6-(1-(1-4-(trifluoromethyl)phenyl)ethyl)-1H-pyrazol-4-yl)pyrimidin-4(3H)-one]"

# From patent US10287269B2, “Pyrazolyl pyrimidinone compounds as PDE2 inhibitors” (Merck Sharp & Dohme Corp., priority 2015, dated 2019)
